Laboratory results reported in patent US20240425490A1, “SULFAMIDE RIBONUCLEOTIDE REDUCTASE (RNR) INHIBITORS AND USES THEREOF” (Boundless Bio, Inc., priority 2021, published 2024).

Target: T1, RNR (RNR1:RNR2 1:1) (Homo sapiens, UniProt P23921)
T1 sequence (P23921 1-792): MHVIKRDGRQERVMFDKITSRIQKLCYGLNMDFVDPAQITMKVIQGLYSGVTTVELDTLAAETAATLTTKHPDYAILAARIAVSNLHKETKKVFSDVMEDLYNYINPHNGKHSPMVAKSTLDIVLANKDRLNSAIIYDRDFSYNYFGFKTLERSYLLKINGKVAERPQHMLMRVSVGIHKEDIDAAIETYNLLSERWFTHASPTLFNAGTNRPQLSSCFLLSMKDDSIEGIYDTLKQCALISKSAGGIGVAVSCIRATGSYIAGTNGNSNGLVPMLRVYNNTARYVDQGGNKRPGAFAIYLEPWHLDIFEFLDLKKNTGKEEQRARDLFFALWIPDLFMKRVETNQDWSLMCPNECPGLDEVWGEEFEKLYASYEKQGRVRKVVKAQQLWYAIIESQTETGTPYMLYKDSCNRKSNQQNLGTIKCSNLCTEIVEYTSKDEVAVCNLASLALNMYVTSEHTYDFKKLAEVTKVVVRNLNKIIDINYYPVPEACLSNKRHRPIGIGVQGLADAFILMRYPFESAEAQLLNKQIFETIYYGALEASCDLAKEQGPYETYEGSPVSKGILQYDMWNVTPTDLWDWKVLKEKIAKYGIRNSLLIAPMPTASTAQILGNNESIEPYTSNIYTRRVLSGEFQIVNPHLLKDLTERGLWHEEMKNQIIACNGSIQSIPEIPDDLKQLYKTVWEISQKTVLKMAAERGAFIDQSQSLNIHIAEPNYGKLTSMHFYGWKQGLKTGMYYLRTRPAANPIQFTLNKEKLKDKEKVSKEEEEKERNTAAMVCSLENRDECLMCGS
Test: RNR enzyme activity, rapid-fire mass spectrometry (RFMS) assay
Format: biochemical
Settings: RNR 50 nM, CDP 5 μM, ATP 1 mM, 37° C., 45 min, compounds screened up to 50 μM, read-out: RF/MS IC50
Summary of the method: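 Human RNR1:RNR2 (1:1, 50 nM) pre-incubated 15 min at room temperature with compound, then reacted with 5 μM CDP and 1 mM ATP, no NADPH, for 45 min at 37 °C. Stopped with 6% HCOOH; turnover read by rapid-fire mass spectrometry; Triapine and hydroxyurea as reference compounds.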

Compound	IC50 [µM]
Cc1ccc(F)c(C(C)[C@H](NS(=O)(=O)N2CCC3(CCC(=O)N3C)CC2)c2n[nH]c(=O)o2)c1C (stereo partly drawn) [Example 93, N-((1S)-2-(6-fluoro-2,3-dimethylphenyl)-1-(5-oxo-4,5-dihydro-1,3,4-oxadiazol-2-yl)propyl)-1-methyl-2-oxo-1,8-diazaspiro[4.5]decane-8-sulfonamide]	1 to 10
Cc1ccc(F)c([C@@H](C)[C@H](NS(=O)(=O)N2CCC(N3CCCC3)CC2)c2n[nH]c(=O)o2)c1C [Example 50, N-((1S,2R)-2-(6-fluoro-2,3-dimethylphenyl)-1-(5-oxo-4,5-dihydro-1,3,4-oxadiazol-2-yl)propyl)-4-(pyrrolidin-1-yl)piperidine-1-sulfonamide]	10 to 100
Cc1ccc(F)c([C@H](C)[C@H](NS(=O)(=O)N2CCC(c3nncn3C)CC2)c2n[nH]c(=O)o2)c1C [Example 53, N-((1S,2S)-2-(6-fluoro-2,3-dimethylphenyl)-1-(5-oxo-4,5-dihydro-1,3,4-oxadiazol-2-yl)propyl)-4-(4-methyl-4H-1,2,4-triazol-3-yl)piperidine-1-sulfonamide]	10 to 100
Cc1ccc(F)c([C@@H](C)[C@H](NS(=O)(=O)N2CC3CCCC(C3)C2)c2n[nH]c(=O)o2)c1C [Example 43, N-((1S,2R)-2-(6-fluoro-2,3-dimethylphenyl)-1-(5-oxo-4,5-dihydro-1,3,4-oxadiazol-2-yl)propyl)-3-zabicyclo[3.3.1]nonane-3-sulfonamide]	1 to 10
Cc1ccc(F)c([C@H](C)[C@H](NS(=O)(=O)N2CCC(C3CCCCC3)CC2)c2n[nH]c(=O)o2)c1C [Example 10, 4-cyclohexyl-N-((1S,2S)-2-(6-fluoro-2,3-dimethylphenyl)-1-(5-oxo-4,5-dihydro-1,3,4-oxadiazol-2-yl)propyl)piperidine-1-sulfonamide]	10 to 100
CCN(CC1CC1)S(=O)(=O)N[C@H](c1n[nH]c(=O)o1)[C@@H](C)c1c(F)ccc(C)c1C [Example 120]	10 to 100
Cc1ccc(F)c(C(C)[C@H](NS(=O)(=O)N2CCC3(CC2)COC(=O)O3)c2n[nH]c(=O)o2)c1C (stereo partly drawn) [Example 67, N-((1S)-2-(6-fluoro-2,3-dimethylphenyl)-1-(5-oxo-4,5-dihydro-1,3,4-oxadiazol-2-yl)propyl)-2-oxo-1,3-dioxa-8-azaspiro[4.5]decane-8-sulfonamide]	10 to 100
Cc1ccc(F)c([C@@H](C)[C@H](NS(=O)(=O)N2CCC3(CC2)OCCO3)c2n[nH]c(=O)o2)c1C [Example 133, N-((1S,2R)-2-(6-fluoro-2,3-dimethylphenyl)-1-(5-oxo-4,5-dihydro-1,3,4-oxadiazol-2-yl)propyl)-1,4-dioxa-8-azaspiro[4.5]decane-8-sulfonamide]	10 to 100
Cc1ccc(F)c([C@@H](C)[C@H](NS(=O)(=O)N2CCC(C3CCCCC3)CC2)c2n[nH]c(=O)o2)c1C [Example 9, 4-cyclohexyl-N-((1S,2R)-2-(6-fluoro-2,3-dimethylphenyl)-1-(5-oxo-4,5-dihydro-1,3,4-oxadiazol-2-yl)propyl)piperidine-1-sulfonamide]	10 to 100
Cc1ccc(F)c(C(C)[C@H](NS(=O)(=O)N2CCC(NC(=O)C(C)(C)C)CC2)c2n[nH]c(=O)o2)c1C (stereo partly drawn) [Example 75, N-(1-(N-((1S)-2-(6-fluoro-2,3-dimethylphenyl)-1-(5-oxo-4,5-dihydro-1,3,4-oxadiazol-2-yl)propyl)sulfamoyl)piperidin-4-yl)pivalamide]	1 to 10
CC(=O)[C@@H]1CCCCN1S(=O)(=O)N[C@H](c1n[nH]c(=O)o1)[C@@H](C)c1c(F)ccc(C)c1C [Example 18, (S)-2-acetyl-N-((1S,2S)-2-(6-fluoro-2,3-dimethylphenyl)-1-(5-oxo-4,5-dihydro-1,3,4-oxadiazol-2-yl)propyl)piperidine-1-sulfonamide]	1 to 10
Cc1ccc(F)c([C@@H](C)[C@H](NS(=O)(=O)N2CCc3cc(Cl)ccc3C2)c2n[nH]c(=O)o2)c1C [Example 107, 6-chloro-N-((1S,2R)-2-(6-fluoro-2,3-dimethylphenyl)-1-(5-oxo-4,5-dihydro-1,3,4-oxadiazol-2-yl)propyl)-3,4-dihydroisoquinoline-2(1H)-sulfonamide]	0.1 to 1
Cc1ccc(F)c(C(C)[C@H](NS(=O)(=O)N2CCC(OC(F)(F)F)CC2)c2n[nH]c(=O)o2)c1C (stereo partly drawn) [Example 46, N-((1S)-2-(6-fluoro-2,3-dimethylphenyl)-1-(5-oxo-4,5-dihydro-1,3,4-oxadiazol-2-yl)propyl)-4-(trifluoromethoxy)piperidine-1-sulfonamide]	1 to 10
Cc1ccc(F)c([C@@H](C)[C@H](NS(=O)(=O)N2CCC(Oc3ccccc3)CC2)c2n[nH]c(=O)o2)c1C [Example 55, N-((1S,2R)-2-(6-fluoro-2,3-dimethylphenyl)-1-(5-oxo-4,5-dihydro-1,3,4-oxadiazol-2-yl)propyl)-4-phenoxypiperidine-1-sulfonamide]	0.1 to 1
Cc1ccc(F)c(C(C)[C@H](NS(=O)(=O)N2CCCCC2C#N)c2n[nH]c(=O)o2)c1C (stereo partly drawn) [Example 3, 2-cyano-N-[(1S)-2-(6-fluoro-2,3-dimethylphenyl)-1-(5-oxo-4H-1,3,4-oxadiazol-2-yl)propyl]piperidine-1-sulfonamide]	1 to 10
Cc1ccc(F)c([C@@H](C)[C@H](NS(=O)(=O)N2CCCCC2c2ccccc2)c2n[nH]c(=O)o2)c1C (stereo partly drawn) [Example 35, N-((1S,2R)-2-(6-fluoro-2,3-dimethylphenyl)-1-(5-oxo-4,5-dihydro-1,3,4-oxadiazol-2-yl)propyl)-2-phenylpiperidine-1-sulfonamide]	1 to 10
Cc1ccc(F)c([C@H](C)[C@H](NS(=O)(=O)N2CCC(C(F)F)CC2)c2n[nH]c(=O)o2)c1C [Example 44, 4-(difluoromethyl)-N-((1S,2S)-2-(6-fluoro-2,3-dimethylphenyl)-1-(5-oxo-4,5-dihydro-1,3,4-oxadiazol-2-yl)propyl)piperidine-1-sulfonamide]	1 to 10

Second part, the compound after the results:

IC50 [µM]	Compound
10 to 100	Cc1ccc(F)c([C@@H](C)[C@H](NS(=O)(=O)N2CCC[C@@](C)(O)C2)c2n[nH]c(=O)o2)c1C [Example 22, (R)-N-((1S,2R)-2-(6-fluoro-2,3-dimethylphenyl)-1-(5-oxo-4,5-dihydro-1,3,4-oxadiazol-2-yl)propyl)-3-hydroxy-3-methylpiperidine-1-sulfonamide]
0.1 to 1	Cc1ccc(F)c(C(C)[C@H](NS(=O)(=O)N2CCC(Cl)(Cl)C(C)C2)c2n[nH]c(=O)o2)c1C (stereo partly drawn) [Example 99, 4,4-dichloro-N-((1S)-2-(6-fluoro-2,3-dimethylphenyl)-1-(5-oxo-4,5-dihydro-1,3,4-oxadiazol-2-yl)propyl)-3-methylpiperidine-1-sulfonamide]
0.1 to 1	Cc1ccc(F)c([C@@H](C)[C@H](NS(=O)(=O)N2CCC(Cl)CC2)c2n[nH]c(=O)o2)c1C [Example 5, 4-chloro-N-((1S,2R)-2-(6-fluoro-2,3-dimethylphenyl)-1-(5-oxo-4,5-dihydro-1,3,4-oxadiazol-2-yl)propyl)piperidine-1-sulfonamide]
0.1 to 1	Cc1ccc(F)c([C@@H](C)[C@H](NS(=O)(=O)N2CCC(F)(F)CC2)c2n[nH]c(=O)o2)c1C [Example 1, 4,4-difluoro-N-((1S,2R)-2-(6-fluoro-2,3-dimethylphenyl)-1-(5-oxo-4,5-dihydro-1,3,4-oxadiazol-2-yl)propyl)piperidine-1-sulfonamide]
1 to 10	C#CC1CCN(S(=O)(=O)N[C@H](c2n[nH]c(=O)o2)[C@H](C)c2c(F)ccc(C)c2C)CC1 [Example 48, 4-ethynyl-N-((1S,2R)-2-(6-fluoro-2,3-dimethylphenyl)-1-(5-oxo-4,5-dihydro-1,3,4-oxadiazol-2-yl)propyl)piperidine-1-sulfonamide]
10 to 100	Cc1ccc(F)c([C@H](C)[C@H](NS(=O)(=O)N2CCCC(C(C)O)C2)c2n[nH]c(=O)o2)c1C (mixture of isomers) [Example 28, rac-N-((1R,2R)-2-(6-fluoro-2,3-dimethylphenyl)-1-(5-oxo-4,5-dihydro-1,3,4-oxadiazol-2-yl)propyl)-3-(1-hydroxyethyl)piperidine-1-sulfonamide]
0.1 to 1	Cc1ccc(F)c([C@@H](C)[C@H](NS(=O)(=O)N2CCC(CCl)CC2)c2n[nH]c(=O)o2)c1C [Example 41, 4-(chloromethyl)-N-((1S,2R)-2-(6-fluoro-2,3-dimethylphenyl)-1-(5-oxo-4,5-dihydro-1,3,4-oxadiazol-2-yl)propyl)piperidine-1-sulfonamide]
0.1 to 1	COC(=O)C1(C)CCN(S(=O)(=O)N[C@H](c2n[nH]c(=O)o2)[C@H](C)c2c(F)ccc(C)c2C)CC1 [Example 78, methyl 1-(N-((1S,2R)-2-(6-fluoro-2,3-dimethylphenyl)-1-(5-oxo-4,5-dihydro-1,3,4-oxadiazol-2-yl)propyl)sulfamoyl)-4-methylpiperidine-4-carboxylate]
